Assay results: ChEMBL document CHEMBL6177948, “Discovery of potential Leonurine-based therapeutic lead MJ210 attenuates Parkinson's disease pathogenesis via NF-κB and MAPK pathways: Mechanistic insights from in vitro and in vivo rotenone models” (Eur J Med Chem, 2025)
Activity calls are given as the source filed them. The rule behind the calls is not given here.

Assays:
SH-SY5Y [1] = test: Neuroprotective activity against rotenone-induced cytotoxicity in human SH-SY5Y cells assessed as increase in number of live cells by measuring mean fluorescence intensity; format: functional, cell-based
SH-SY5Y [2] = test: Anti-apoptotic activity in rotenone-induced human SH-SY5Y cells assessed as reduction in Caspase-3 expression by Western blotting analysis; format: functional, cell-based
Rattus norvegicus [3] = test: Anti-parkinson activity in rotenone-induced neurodegeneration in male Wistar rat model assessed as minimal neuronal loss in substantia nigra at 5 mg/kg, ip pretreated with compound every alternative days followed by rotenone addition and measured after 42 days by H and E staining based analysis; format: functional, organism-based; conditions: time 42.0 day
Rattus norvegicus [4] = test: Anti-parkinson activity in rotenone-induced neurodegeneration in male Wistar rat model assessed as reduced edema in substantia nigra at 5 mg/kg, ip pretreated with compound every alternative days followed by rotenone addition and measured after 42 days by H and E staining based analysis; format: functional, organism-based; conditions: time 42.0 day
Rattus norvegicus [5] = test: Anti-parkinson activity in rotenone-induced male Wistar rat model assessed as prevention of rotenone-induced dopaminergic neuronal death at 5 mg/kg, ip by immunoblotting analysis; format: functional, organism-based
Rattus norvegicus [6] = test: Anti-parkinson activity in rotenone-induced neurodegeneration in male Wistar rat model assessed as decrease neuronal damage in cortex at 5 mg/kg, ip pretreated with compound every alternative days followed by rotenone addition and measured after 42 days by Nissl staining based analysis; format: functional, organism-based; conditions: time 42.0 day
Rattus norvegicus [7] = test: Anti-parkinson activity in rotenone-induced male Wistar rat model assessed as improvement in bradykinesia at 5 mg/kg, ip pretreated with compound every alternative days followed by rotenone addition and measured after 42 days by pole test; format: functional, organism-based; conditions: time 42.0 day
Rattus norvegicus [8] = test: Anti-parkinson activity in rotenone-induced neurodegeneration in male Wistar rat model assessed as minimal neuronal loss in striatum at 5 mg/kg, ip pretreated with compound every alternative days followed by rotenone addition and measured after 42 days by H and E staining based analysis; format: functional, organism-based; conditions: time 42.0 day
[9] = Drug excretion in male Wistar rat brain at 50 mg/kg, ip measured after 4.25 hrs; format: ADME, organism-based; conditions: in vivo
Rattus norvegicus [10] = test: Anti-parkinson activity in rotenone-induced male Wistar rat assessed as increase in TH positive fiber density in striatum at 5 mg/kg, ip pretreated with compound every alternative days followed by rotenone addition and measured after 42 days by immunofluorescence staining based analysis; format: functional, organism-based; conditions: time 42.0 day
SH-SY5Y [11] = test: Inhibition of MAPK signaling pathway in rotenone-induced human SH-SY5Y cells assessed as reduction in P-38 phosphorylation level by ELISA; format: cell-based
SH-SY5Y [12] = test: Neuroprotective activity against rotenone-induced neuronal apoptosis in human SH-SY5Y cells assessed as decrease in number of apoptotic cells at 5 uM preincubated with compound for 24 hrs followed by rotenone addition and measured after 24 hrs by Hoechst 33258 staining based fluorescence microscopic analysis; format: functional, cell-based; conditions: time 48.0 hrs
Rattus norvegicus [13] = test: Improvement in rotenone-induced depression-like behavior in male Wistar rat model assessed as improvement in sucrose intake at 5 mg/kg, ip pretreated with compound every alternative days followed by rotenone addition and measured after 42 days by sucrose preference test; format: functional, organism-based; conditions: time 42.0 day
Rattus norvegicus [14] = test: Anti-parkinson activity in rotenone-induced neurodegeneration in male Wistar rat model assessed as reduction in necrosis in striatum at 5 mg/kg, ip pretreated with compound every alternative days followed by rotenone addition and measured after 42 days by Nissl staining based analysis; format: functional, organism-based; conditions: time 42.0 day
Rattus norvegicus [15] = test: Anti-parkinson activity in rotenone-induced neurodegeneration in male Wistar rat model assessed as reduction in pyknotic neurons in cortex at 5 mg/kg, ip pretreated with compound every alternative days followed by rotenone addition and measured after 42 days by Nissl staining based analysis; format: functional, organism-based; conditions: time 42.0 day
SH-SY5Y [16] = test: Neuroprotective activity against rotenone-induced mitochondrial morphological changes in human SH-SY5Y cells assessed as filamentous mitochondrial shape at 5 uM preincubated with compound for 24 hrs followed by rotenone addition and measured after 24 hrs by Mito Tracker staining based fluorescence microscopic analysis; format: functional, cell-based; conditions: time 48.0 hrs
SH-SY5Y [17] = test: Neuroprotective activity against rotenone-induced mitochondrial morphological changes in human SH-SY5Y cells assessed as intact tubular at 5 uM preincubated with compound for 24 hrs followed by rotenone addition and measured after 24 hrs by Mito Tracker staining based fluorescence microscopic analysis; format: functional, cell-based; conditions: time 48.0 hrs
SH-SY5Y [18] = test: Anti-inflammatory activity in rotenone-induced human SH-SY5Y cells assessed as reduction in IL-6 expression by Western blotting analysis; format: functional, cell-based
[19] = Toxicity in male Wistar rat assessed as change in cellular structure of liver at 1 to 10 mg/kg by H and E staining based analysis; format: organism-based; conditions: in vivo, dose 1-10 mg/kg
Rattus norvegicus [20] = test: Anti-parkinson activity in rotenone-induced male Wistar rat model assessed as reduction in rotenone-induced behavioral impairment by measuring time in central zone at 5 mg/kg, ip pretreated with compound every alternative days followed by rotenone addition and measured after 42 days by open field test; format: functional, organism-based; conditions: time 42.0 day
Rattus norvegicus [21] = test: Anti-inflammatory activity in rotenone-induced male Wistar rat model assessed as reduction in IL-1beta expression level in striatum at 5 mg/kg, ip pretreated with compound every alternative days followed by rotenone addition and measured after 42 days by ELISA; format: functional, organism-based; conditions: time 42.0 day
Rattus norvegicus [22] = test: Anti-inflammatory activity in rotenone-induced male Wistar rat model assessed as reduction in IL-1beta expression level in substantia nigra at 5 mg/kg, ip pretreated with compound every alternative days followed by rotenone addition and measured after 42 days by ELISA; format: functional, organism-based; conditions: time 42.0 day
Rattus norvegicus [23] = test: Anti-parkinson activity in rotenone-induced male Wistar rat model assessed as increase DAT expression in striatum at 5 mg/kg, ip pretreated with compound every alternative days followed by rotenone addition and measured after 42 days by Western blotting analysis; format: functional, organism-based; conditions: time 42.0 day
SH-SY5Y [24] = test: Anti-inflammatory activity against rotenone-induced human SH-SY5Y cells assessed as reduction in IL-1beta mRNA expression level by RT-qPCR analysis; format: functional, cell-based
Rattus norvegicus [25] = test: Anti-parkinson activity in rotenone-induced neurodegeneration in male Wistar rat model assessed as reduction in pyknotic neurons in substantia nigra at 5 mg/kg, ip pretreated with compound every alternative days followed by rotenone addition and measured after 42 days by Nissl staining based analysis; format: functional, organism-based; conditions: time 42.0 day
Rattus norvegicus [26] = test: In vivo inhibition of MAPK signaling pathway in rotenone-induced parkinson disease male Wistar rat model assessed as reduction in ERK1/2 phosphorylation level in substantia nigra at 5 mg/kg, ip pretreated with compound every alternative days followed by rotenone addition and measured after 42 days by Western blotting analysis; format: functional, organism-based; conditions: time 42.0 day
Rattus norvegicus [27] = test: Anti-parkinson activity in rotenone-induced male Wistar rat model assessed as increase in TH expression in substantia nigra at 1 mg/kg, ip pretreated with compound every alternative days followed by rotenone addition and measured after 42 days by Western blotting analysis; format: functional, organism-based; conditions: time 42.0 day
SH-SY5Y [28] = test: Neuroprotective activity against rotenone-induced mitochondrial ROS generation in human SH-SY5Y cells assessed as decrease in ROS level at 5 uM preincubated with compound for 24 hrs followed by rotenone addition and measured after 24 hrs by […] fluorescence microscopic analysis; format: functional, cell-based; conditions: time 48.0 hrs

## COc1cc(CCC(=O)N2CCCCC2)cc(OC)c1OC(=O)c1ccccn1
SH-SY5Y [1]
  Activity: Active
SH-SY5Y [2]
  Activity: Active
Rattus norvegicus [3]
  Activity: Active
Rattus norvegicus [4]
  Activity: Active
Rattus norvegicus [5]
  Activity: Active
Rattus norvegicus [6]
  Activity: Active
Rattus norvegicus [7]
  Activity: Active
Rattus norvegicus [8]
  Activity: Active
[9]
  Drug excretion: Active
Rattus norvegicus [10]
  Activity: Active
SH-SY5Y [11]
  inhibition: Active
SH-SY5Y [12]
  Activity: Active
Rattus norvegicus [13]
  Activity: Active
Rattus norvegicus [14]
  Activity: Active
Rattus norvegicus [15]
  Activity: Active
SH-SY5Y [16]
  Activity: Active
SH-SY5Y [17]
  Activity: Active
SH-SY5Y [18]
  Activity: Active
[19]
  Activity: Non-toxic
Rattus norvegicus [20]
  Activity: Active
Rattus norvegicus [21]
  Activity: Active
Rattus norvegicus [22]
  Activity: Active
Rattus norvegicus [23]
  Activity: Active
SH-SY5Y [24]
  Activity: Active
Rattus norvegicus [25]
  Activity: Active
Rattus norvegicus [26]
  inhibition: Active
Rattus norvegicus [27]
  Activity: Active
SH-SY5Y [28]
  Activity: Active
